pEC50, pIC50: −log10 of the molar value.
Key:
[1] = molecular target: T1, Peroxisome proliferator-activated receptor gamma (Homo sapiens, UniProt P37231); test: Agonist activity at human PPARgamma expressed in HEK293 cells assessed as luciferase activity by GAL4 transactivation assay; type: functional, cell-based
T1 sequence (P37231 whole entry): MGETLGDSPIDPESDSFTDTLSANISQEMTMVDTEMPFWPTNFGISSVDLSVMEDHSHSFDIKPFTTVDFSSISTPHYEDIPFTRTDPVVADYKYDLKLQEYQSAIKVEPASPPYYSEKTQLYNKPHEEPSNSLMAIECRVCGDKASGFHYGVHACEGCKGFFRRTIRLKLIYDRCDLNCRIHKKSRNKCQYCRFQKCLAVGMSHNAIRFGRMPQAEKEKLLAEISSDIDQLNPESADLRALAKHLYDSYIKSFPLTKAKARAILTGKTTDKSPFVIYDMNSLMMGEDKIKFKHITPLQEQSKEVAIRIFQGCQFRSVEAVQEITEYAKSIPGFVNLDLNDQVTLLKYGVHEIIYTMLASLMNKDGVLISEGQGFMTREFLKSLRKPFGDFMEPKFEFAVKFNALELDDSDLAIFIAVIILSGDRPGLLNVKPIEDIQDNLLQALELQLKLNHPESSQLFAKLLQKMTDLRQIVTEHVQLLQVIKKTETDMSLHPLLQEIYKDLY

[2] = molecular target: T2, Peroxisome proliferator-activated receptor alpha (Homo sapiens, UniProt Q07869); test: Agonist activity at human PPARalpha expressed in HEK293 cells assessed as luciferase activity by GAL4 transactivation assay; type: functional, cell-based
T2 sequence (Q07869 whole entry): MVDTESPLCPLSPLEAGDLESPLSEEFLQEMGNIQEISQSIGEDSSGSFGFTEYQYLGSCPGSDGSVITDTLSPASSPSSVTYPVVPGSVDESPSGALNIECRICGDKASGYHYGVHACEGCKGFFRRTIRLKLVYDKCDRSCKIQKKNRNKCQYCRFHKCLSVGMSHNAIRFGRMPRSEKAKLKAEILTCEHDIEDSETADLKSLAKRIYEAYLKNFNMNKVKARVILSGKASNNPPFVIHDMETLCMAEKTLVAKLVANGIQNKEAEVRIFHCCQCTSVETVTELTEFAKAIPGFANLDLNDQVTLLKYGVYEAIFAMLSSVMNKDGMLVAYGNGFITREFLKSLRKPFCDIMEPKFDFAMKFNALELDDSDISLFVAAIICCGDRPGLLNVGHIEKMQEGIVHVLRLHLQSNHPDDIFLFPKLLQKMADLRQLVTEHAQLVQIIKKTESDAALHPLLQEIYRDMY

[3] = molecular target: Peroxisome proliferator-activated receptor alpha (Homo sapiens) (UniProt Q07869); test: Binding affinity at human PPARalpha by fluorescence polarization
[4] = molecular target: Peroxisome proliferator-activated receptor gamma (Homo sapiens) (UniProt P37231); test: Binding affinity at human PPARgamma by fluorescence polarization

Row | SMILES | pEC50 [1] | pEC50 [2] | pIC50 [3] | pIC50 [4]
1 | Cc1oc(-c2ccccc2)nc1CCOc1ccc(C2=C(C(=O)O)CCN(C(=O)OCC(C)C)C2)cc1 | 5.33 | 5.25 | < 4.56 | 5.13
2 | Cc1oc(-c2ccccc2)nc1CCOc1cccc(CC2=C(C(=O)O)CCN(c3nccc(C(F)(F)F)n3)C2)c1 | 6.19 | 7.05 | 5.88 | 5.86
3 | Cc1oc(-c2ccccc2)nc1CCOc1cccc(C2=C(CC(=O)O)CCN(C(=O)Oc3ccccc3)C2)c1 | 7.34 | 8.40 | 7.80 | 7.47
4 | Cc1oc(-c2ccccc2)nc1CCOc1ccc(C[C@@H]2CN(c3nccc(C(F)(F)F)n3)C[C@@H]2C(=O)O)cc1 | 8.15 | 6.78 | – | –
5 | Cc1oc(-c2ccccc2)nc1CCOc1cccc(C2=C(C(=O)O)CCN(Cc3ccccc3)C2)c1 | < 5.12 | < 5.12 | < 4.56 | < 4.56
6 | CCCOC(=O)N1CCC(C(=O)O)=C(Cc2cccc(OCCc3nc(-c4ccccc4)oc3C)c2)C1 | 6.74 | – | – | –
7 | Cc1oc(-c2ccccc2)nc1CCOc1ccc(CC2=C(C(=O)O)CCN(C(=O)OCC(C)C)C2)cc1 | 5.95 | 7.55 | 5.93 | 5.52
8 | Cc1oc(-c2ccccc2)nc1CCOc1ccc(CCC2=C(C(=O)O)CCN(C(=O)OCC(C)C)C2)cc1 | 7.13 | 7.25 | 6.59 | 6.96
9 | Cc1oc(-c2ccccc2)nc1CCOc1cccc(CC2=C(C(=O)O)CCN(C(=O)OCc3ccccc3)C2)c1 | < 5.46 | 5.31 | < 4.82 | 5.33
10 | Cc1oc(-c2ccccc2)nc1CCOc1cccc(C2=C(CC(=O)O)CCN(C(=O)OCC(C)C)C2)c1 | 7.74 | 8.22 | 6.89 | 7.31
11 | Cc1oc(-c2ccccc2)nc1CCOc1cccc(C2CN(C(=O)OCC(C)C)CCC2CC(=O)O)c1 (racemic) | 6.31 | 6.24 | < 4.82 | 5.51
12 | Cc1oc(-c2ccccc2)nc1CCOc1cccc(CC2=CN(c3nccc(C(F)(F)F)n3)CCC2C(=O)O)c1 (racemic) | 7.85 | 7.64 | 5.97 | 6.54
13 | Cc1oc(-c2ccccc2)nc1CCOc1ccc(CCC2CN(C(=O)OCC(C)C)CCC2C(=O)O)cc1 (racemic) | 6.58 | 7.36 | 6.15 | 6.35
14 | Cc1oc(-c2ccccc2)nc1CCOc1ccc(CC2CN(C(=O)OCC(C)C)CCC2C(=O)O)cc1 (racemic) | 6.59 | 8.30 | 6.67 | 5.90
15 | Cc1oc(-c2ccccc2)nc1CCOc1cccc(CC2CN(C(=O)OCC(C)C)CCC2C(=O)O)c1 (racemic) | 5.97 | 7.74 | 5.86 | 5.22
16 | Cc1oc(-c2ccccc2)nc1CCOc1cccc(C2CN(C(=O)OCC(C)C)CCC2C(=O)O)c1 (racemic) | < 5.12 | 6.68 | 5.12 | < 4.56
17 | Cc1oc(-c2ccccc2)nc1CCOc1cccc(CC2=CN(C(=O)OCc3ccccc3)CCC2C(=O)O)c1 (racemic) | 7.62 | 7.80 | 6.18 | 6.88
18 | Cc1oc(-c2ccccc2)nc1CCOc1cccc(C2CN(C(=O)Oc3ccccc3)CCC2CC(=O)O)c1 (racemic) | 5.89 | 6.77 | 5.09 | 5.11
19 | COc1ccc(OC(=O)N(CC(=O)O)Cc2ccc(OCCc3nc(-c4ccccc4)oc3C)cc2)cc1 [MURAGLITAZAR] | – | 5.85 | – | –
